The structures appear in SMILES notation. In brackets after ≈: the same amount, converted by molar mass.

For orientation: IC50 means the midpoint of a concentration-inhibition curve.

One series concerns CYP24A1 mRNA. Description: Induction of CYP24A1 transcription in cryopreserved isolated intestinal mucosa (RT-PCR). The class given is cell-based, human. The settings on record: 24-hr treatment, dose dependent. How it is done:
Gene transcription in the intestinal mucosa was quantified based on reverse transcription-real time PCR (RT-PCR) using the 7500 Fast Real-Time PCR system (Applied Biosystems, Foster City, Calif.). Total RNA was extracted using the mini RNeasy kit (QIAGEN, www.qiagen.com) according to instructions provided by the manufacturer for isolation of total RNA from the intestinal mucosa. At first, reverse transcription (RT) was performed with approximately 200 ng of isolated RNA using the High Capacity cDNA Reverse Transcription Kit (Thermo Fisher Scientific Inc., www.thermofisher.com). Subsequently, quantitative PCR analysis was performed on RT reactions using gene specific primer/probe sets and the Taqman Fast Universal PCR Master Mix (Thermo Fisher). The relative quantity of the target gene was compared with that of the reference transcription of […] (GAPDH) as determined by the […] and as previously described (Fahmi, Kish et al. 2010).
P450 induction in cryopreserved metabolically competent isolated intestinal mucosa was evaluated based on gene transcription. Following a 24-hr treatment period, dose dependent induction of CYP3A4 mRNA by rifampin and 25-hydroxyD3; and, CYP24A1 mRNA by 25-hydroxyD3 were observed. For CYP3A4, the maximal fold of induction was approximately 3-fold for both inducers. Data shown for 25-hydroxyD3 in FIG. 10C.

The nature of a further series: in vitro. The settings on record: human, IC50 (cytotoxicity). As for the experimental part: (§1) The cryopreserved vials of the isolated intestinal mucosa comprising villi were removed from liquid nitrogen storage and thawed in a 37° C. water bath for approximately 2 min. The contents of each individual vial were decanted into a 50 ml conical tube containing Cryopreserved Enterocyte Recovery Medium, (In Vitro ADMET Laboratories, Columbia, Md.) that was pre-warmed in a 37° C. water bath. The thawed in vitro reagent was recovered by centrifugation at 100×g for 10 min at room temperature. After centrifugation, the supernatant was removed by decanting. A volume of 5 mL of 4° C. Hepatocyte/Enterocyte Incubation Medium, (In Vitro ADMET Laboratories, Columbia, Md.) was added to the intact pellet of enterocytes at the bottom of the conical tube followed by briskly re-pipetting 5 times with a P1000 micropipet to create an even suspension of the intestinal mucosal fragments.
(§2) In vitro cytotoxicity evaluation with cryopreserved intestinal mucosa was performed in 96-well plates. After recovery from cryopreservation as described above, the CHIM pellet was resuspended in 5 mL of Hepatocyte Incubation Medium (IVAL, Columbia, Md.). […] The cryopreserved intestinal mucosa cultures were then incubated in a CO2 cell culture incubator kept at 37° C. in a highly humidified atmosphere of 5% CO2. After an incubation duration of 24 hrs., cell viability was determined based on cellular ATP contents as previously described.
(§3) Data are presented as mean and standard deviation of triplicate incubations derived using the Microsoft Excel 6.0 software. Statistical analysis was performed using student's t-test with the Microsoft Excel 6.0 software, with the probability of p<0.05 to be considered statistically significant. Specific activity (pmol/min/mg protein) of each drug metabolizing enzyme pathway was determined by dividing the total metabolite formed by the incubation time and normalized to protein contents.

Series [1] concerns cryopreserved intestinal mucosa isolated from human duodenum, jejunum, and ileum. Nature of the series: in vitro. The settings on record: for IC50: Homo sapiens, read-out: IC50 (viability by cellular ATP contents), range over regions, duodenum, jejunum, and ileum of Donor 1. How it is done: as §1, §2, §3
Series [2] has as its system cryopreserved human intestinal mucosa. Description: Drug-induced enterotoxicity in cryopreserved human intestinal mucosa, viability by cellular ATP contents (Example 6). The following applies: duodenum, jejunum and ileum, three donors, FIGS. 6 and 7. How it is done:
A vial of cryopreserved intestinal mucosa was thawed in a 37 C deg. water bath and added to 50 mL of culture medium (Universal Cryopreservation Plating Medium, In Vitro ADMET Laboratories, Columbia, Md.). The recovered mucosa pellet was suspended in a protein free incubation medium (Hepatocyte Enterocyte Incubation Medium, In Vitro ADMET Laboratories, Columbia, Md.). […] The plate was incubated at 37 deg. C. for 24 hrs after which cell viability was determined by the quantification of cellular ATP contents (ATPLite, Perkin Elmers).

Take `C=C1/C(=C\C=C2/CCC[C@]3(C)[C@@H]([C@H](C)CCCC(C)(C)O)CC[C@@H]23)C[C@@H](O)C[C@@H]1O` [1,25(OH)D3, 1,25-dihydroxyvitamin D3]: the “induction of CYP24A1 transcription (mRNA)” value with CYP24A1 mRNA was “approximately 300 fold”; in the series with CYP24A1 mRNA (listed as 25-hydroxyD3) it was “Approximately 300 fold”; with CYP24A1 mRNA (listed as vitamin D3), “approx. 300 fold”.
Compound `CC(=O)Nc1ccc(O)cc1` [APAP, acetaminophen] gave an IC50 at 24 h in the series “in vitro” of 2250 µg/mL (≈ 14900 µM). In addition, in series [1], the “cytotoxicity in cryopreserved intestinal mucosa (in words)” value is on record as “Dose-dependent cytotoxicity” and the IC50 was 920 to 1180 µg/mL (≈ 6090 to 7810 µM).
Regarding `COc1ccc2cc([C@H](C)C(=O)O)ccc2c1` [Naproxen, naproxen], the IC50 at 24 h in the series “in vitro” (Duodenum mucosa, 24 hrs, cellular ATP contents) is 350 µg/mL (≈ 1520 µM); in the series “in vitro” (Ileum mucosa, 24 hrs, cellular ATP contents) it was 360 µg/mL (≈ 1560 µM); in “in vitro” (Jejunum mucosa, 24 hrs, cellular ATP contents), 390 µg/mL (≈ 1690 µM). In addition, the IC50 in series [1] was in the range of 350 to 390 µg/mL (≈ 1520 to 1690 µM). The “cytotoxicity in cryopreserved intestinal mucosa (in words)” value in series [1] (three donors, 24 hrs) is given as “Dose-dependent cytotoxicity”. Further, the “viability in isolated intestinal mucosa (in words)” value in series [2] is on record as “dose-dependent decrease in viability”.

These data come from US20190293634A1, “ISOLATED INTESTINAL MUCOSA AND USES THEREOF” (priority 2018, published 2019).
